Experimental data reported in patent US20040057976A1, “Insect bait” (priority 2002, published 2004).
Several values for one entry are separate records, joined by “and”; a condition that tells them apart may be missing. Equal values may be shown once. Read-outs that look alike come from different tables or passages of the source.

Experiments:
[1] = system: white-footed ants; assay: Two-choice, random-order preference tests on exterior walls; type: in vivo, Technomyrmex albipes
Procedure: Two commercial ready-to-use (RTU) ant baits and several sugar solutions were tested with and without active ingredients, including 10,000 ppm DOT (Uncle Albert's Super Smart Ant Bait®, A Safe Pest Eliminators, Inc., Miami, Fla.) and 10,000 ppm orthoboric acid (Drax Liquidator®, Waterbury Companies, Inc., Waterbury, Conn.). Sugar water solutions tested included: 100,000 ppm, 150,000 ppm, 200,000 ppm, 250,000 ppm, 350,000 ppm, 400,000 ppm, and 500,000 ppm sucrose (Publix Supermarkets, […] and 500,000 ppm fructose (Fisher Scientific, Pittsburgh, Pa.), 250,000 ppm maltose (Fisher Scientific). Four insect bait formulations of the invention (ND 1, ND2, ND3, ND4, see Table II) were also tested against sugars and commercial baits. […] Borax, Los Angeles, Calif.). Glass shell vials (6-ml capacity) with […] plastic caps (Fisher Scientific) were used for bait containers. Vials were modified for use as bait containers by drilling holes (6 mm) in the caps, inserting cotton dental wicks, which minimize bait desiccation and entrapment by ants, adding 4.5-ml solution, and using […]® (Pacer Technology, Rancho Cucamonga, Calif.) adhesive putty to hold the vials on the walls. Each test consisted of 5 bait vial pairs placed in 2 columns (FIG. 1). […] Nine counts of ants on each wick were taken approximately every 30 minutes over 4.5 hours. When the numbers of ants could not be counted visually, digital photographs were taken, and counts were taken from a computer display. Data were analyzed using t-Test and Mann-Whitney Rank Sum Tests at P=0.05.

[2] = system: T. Albipes adults; assay: Laboratory efficacy test, second trial (non-forced bioassay, 15 treatments); type: in vivo, Technomyrmex albipes; settings: means of 5 replicates
Procedure: When ant populations appeared stable, treatments were applied. No ants were added during the experiment.
Surface treatments included 1,200 ppm fipronil (Termidor®& SC), 500 ppm indoxacarb (DuPont, Wilmington, Del.), 500 ppm deltamethrin (DeltaDust®, Aventis Environmental Science), and 600 ppm lambda cyhalothrin (Demand®V CS, Syngenta Crop Protection).
Both vials had felt pads under them. Boxes with gels had the gels in weighing boats.
Mortality for the second trial was recorded for 47 days.

[3] = system: T. Albipes adults; settings: first trial, non-forced bioassay, means of 5 replicates
Description: White-footed ants were collected from a stand of Phoenix roebelenii palms at the University of Florida Fort Lauderdale Research and Education Center (Broward Co., FL). Adult ants and brood were collected from nesting sites in palm thatch between 9 a.m. and 3 p.m., when most of the foragers are in the nests. The thatch was placed in a plastic 100-liter garbage pail through a 28-cm hole cut into the center of its lid. The upper portions of the interior sides of the pail were coated with a petroleum jelly (Vaseline® London, UK) to retard the ants' escape.
Infested thatch material was taken from the garbage pail, placed in the container, covered with 1×15-cm strips of wood and a separator sheet of 3-mm polycarbonate with 2-mm holes. Dripping water from a 2-1 tank suspended over the container forced the ants to leave the thatch and enter nesting tubes (10×75 mm clear polystyrene test tubes) (Fisher Scientific, Pittsburgh, Pa.), filled at the bottom with a small cotton ball soaked with sugar water, and completely covered with aluminum foil.
Nalgene™ reusable plastic utility boxes with lids ([…]) (Fisher Scientific, Pittsburgh, Pa.) were used to hold white-footed ant colonies for laboratory tests (FIG. 4). Nesting tubes with about 200 ants and dozens of brood were placed into each box, held in place with a small amount of Handi-Tak®. Ants were provisioned with water by placing a small cotton ball moistened with approximately 2-ml deionized water in a 41×41×8 mm plastic weighing boat.
Five holes (0.86 mm ID) were drilled into the caps. Vials were filled with 4.5 ml bait solution, inverted, and attached to the sides of the boxes with Handi-Tak® (FIG. 3). Sugar water was fed ad libitum to the ants at all times and supplemented twice weekly by live termites or canned chicken for protein. A felt pad was placed under each vial to catch errant drops and prevent ants from being entrapped in their sticky residue. Ants were allowed to acclimatize in boxes for several weeks. Each day dead ants were removed and replaced with live ants. When ant populations appeared stable, treatments were applied. No ants were added during the experiment.
Fourteen treatments (5 replicates each, assigned randomly) were applied to the ants in boxes. […] The suspension of XR-007 was placed into a plastic weighing boat (0.5 g), and replaced twice a week or when it desiccated. One corner was cut away to allow for easier access by the ants.
Both vials had felt pads under them. Boxes with gels had the gels in weighing boats. The boats were on the left side of the box, and the untreated sugar water vials were on the right side. […] This was accomplished by adding 0.17-ml to panels and distributing the solution evenly with a fine paintbrush previously saturated in solution. One-half g XR-007 and indoxacarb in honey were placed into the bulb of 9.3-ml large-tip opening transfer pipettes (having had 8-cm cut back from the tip, Samco®b, San Fernando, Calif.).
Dead ants were removed and counted daily for the first week, then twice weekly thereafter. At the end of the experiment, all ants still living were killed with ethanol and counted to determine the total number of ants in each box. […] Mean percent mortalities were analyzed by ANOVA (analysis of variance) and general linear model (SAS Institute, 1989 SAS/STAT user's guide, version 6, 4th ed. SAS Institute, Cary, N.C.) and means separated using Student-Newman-Keals test at P<0.05.
Mortality for the first trial was recorded for 51 days.

[4] = test 18: 25% Sucrose vs. 25% Maltose, P=0.852
[5] = test 17: 50% Fructose vs. 50% Glucose, P=0.817
[6] = test 19: 25% Sucrose vs. 25% Glucose, P=0.463

Compound: OC[C@H]1O[C@H](O[C@H]2[C@H](O)[C@@H](O)C(O)O[C@@H]2CO)[C@H](O)[C@@H](O)[C@@H]1O (mixture of isomers) [maltose]
- preference in binary choice test (counts of ants on wicks) [1, 4]: no significant preferences

Compound: O.O.O.O.O=BOB1OB(OB=O)OB2OB([O-])OB([O-])OB(O1)O2.[Na+].[Na+] [DOT, disodium octaborate tetrahydrate]
- preference in binary choice test (counts of ants on wicks) ([1]; tests 24-30: 25% Sucrose vs. 25% Sucrose + 1% to 7% DOT in 1% increments, P=0.218 to 0.916): no observed preferences

Compound: COC(=O)N(C(=O)N1CO[C@@]2(C(=O)OC)Cc3cc(Cl)ccc3C2=N1)c1ccc(OC(F)(F)F)cc1 [DPX surface, indoxacarb]
- Mean % mortality (+/SD) of T. albipes adults ([2]; 1 day exposure): 2.19 ± 2.42bcd %
- Mean % mortality (+/SD) of T. albipes adults ([2]; 2 days exposure): 2.56 ± 2.51c %
- Mean % mortality (+/SD) of T. albipes adults ([2]; 8 days exposure): 5.61 ± 4.96c %
- Mean % mortality (+/SD) of T. albipes adults ([2]; 29 days exposure): 16.59 ± 12.72de %
- Mean % mortality (+/SD) of T. albipes adults ([2]; 47 days exposure): 27.87 ± 14.59e %

Compound: N#Cc1nn(-c2c(Cl)cc(C(F)(F)F)cc2Cl)c(N)c1[S+]([O-])C(F)(F)F (stereo not drawn) [Fipronil, fipronil]
- Mean percent Mortality (+/SD) of T. Albipes adults ([3]; 1 day exposure): 0.98 ± 0.70b %
- Mean percent Mortality (+/SD) of T. Albipes adults ([3]; 3 days exposure): 3.46 ± 1.38cd %
- Mean percent Mortality (+/SD) of T. Albipes adults ([3]; 7 days exposure): 6.76 ± 2.25e %
- Mean percent Mortality (+/SD) of T. Albipes adults ([3]; 30 days exposure): 27.88 ± 5.89bc %
- Mean percent Mortality (+/SD) of T. Albipes adults ([3]; 51 days exposure): 53.76 ± 10.84b %

Compound: O=[N+]([O-])NC1=NCCN1Cc1ccc(Cl)nc1 [Imidacloprid]
- Mean percent Mortality (+/SD) of T. Albipes adults ([3]; 1 day exposure): 5% and 4.92 ± 4.02ab %
- Mean percent Mortality (+/SD) of T. Albipes adults ([3]; 7 days exposure): 29.84 ± 10.63bc %
- Mean percent Mortality (+/SD) of T. Albipes adults ([3]; 7 days exposure, listed as Irnidacloprid): 30%
- Mean percent Mortality (+/SD) of T. Albipes adults ([3]; 30 days exposure): 79% and 78.55 ± 4.83a %
- Mean percent Mortality (+/SD) of T. Albipes adults ([3]; 51 days exposure): 91% and 90.86 ± 5.43a %

Compound: CN1COCN(Cc2cnc(Cl)s2)/C1=N\[N+](=O)[O-] [Thiamethoxam 10 ppm, Thiamethoxam]
- Mean percent Mortality (+/SD) of T. Albipes adults ([3]; 1 day exposure): 4% and 4.44 ± 2.26ab %
- Mean percent Mortality (+/SD) of T. Albipes adults ([3]; 1 day exposure, listed as Thiamethoxam 1 ppm): 1.66 ± 1.17b %
- Mean percent Mortality (+/SD) of T. Albipes adults ([3]; 3 days exposure): 18.33 ± 8.49b %
- Mean percent Mortality (+/SD) of T. Albipes adults ([3]; 3 days exposure, listed as Thiamethoxam 1 ppm): 3.64 ± 2.80cd %
- Mean percent Mortality (+/SD) of T. Albipes adults ([3]; 7 days exposure): 39% and 38.81 ± 11.13b %
- Mean percent Mortality (+/SD) of T. Albipes adults ([3]; 7 days exposure, listed as Thiamethoxam 1 ppm): 6.44 ± 4.73e %
- Mean percent Mortality (+/SD) of T. Albipes adults ([3]; 30 days exposure): 65% and 64.77 ± 15.51a %
- Mean percent Mortality (+/SD) of T. Albipes adults ([3]; 30 days exposure, listed as Thiamethoxam 1 ppm): 19.73 ± 9.98c %
- Mean percent Mortality (+/SD) of T. Albipes adults ([3]; 51 days exposure): 84% and 84.40 ± 10.09a %
- Mean percent Mortality (+/SD) of T. Albipes adults ([3]; 51 days exposure, listed as Thiamethoxam 1 ppm): 44.02 ± 13.73bcd %

Compound: O=C(CO)[C@@H](O)[C@H](O)[C@H](O)CO [fructose]
- preference in binary choice test (counts of ants on wicks) ([1]; test 2: 25% Fructose vs. 25% Maltose, P=0.033): preferred
- preference in binary choice test (counts of ants on wicks) ([1]; test 14: 25% Fructose vs. Drax Liquidator (no active ingredient), P=0.580): no significant preferences
- preference in binary choice test (counts of ants on wicks) ([1]; test 16: 25% Fructose vs. Uncle Albert's Super Smart Ant Bait (no active ingredient), P 0.057): no significant preferences
- preference in binary choice test (counts of ants on wicks) [1, 5]: no significant preferences

Compound: O=C[C@H](O)[C@@H](O)[C@H](O)[C@H](O)CO [glucose]
- preference in binary choice test (counts of ants on wicks) [1, 5]: no significant preferences
- preference in binary choice test (counts of ants on wicks) [1, 6]: no significant preferences

Compound: OC[C@H]1O[C@@](CO)(O[C@H]2O[C@H](CO)[C@@H](O)[C@H](O)[C@H]2O)[C@@H](O)[C@@H]1O [sucrose]
- preference in binary choice test (counts of ants on wicks) ([1]; test 1: 10% Sucrose vs. water, P<0.001): highly preferred
- preference in binary choice test (counts of ants on wicks) ([1]; test 3: 25% Sucrose vs. 10% Sucrose, P<0.05): preferred
- preference in binary choice test (counts of ants on wicks) ([1]; test 4: 25% Sucrose vs. 25% Fructose, P<0.001): preferred
- preference in binary choice test (counts of ants on wicks) ([1]; test 5: 25% Sucrose vs. 15% Sucrose, P<0.05): preferred
- preference in binary choice test (counts of ants on wicks) ([1]; test 6: 25% Sucrose vs. 20% Sucrose, P<0.05): preferred
- preference in binary choice test (counts of ants on wicks) ([1]; test 7: 40% Sucrose vs. ND1, P=0.002): preferred
- preference in binary choice test (counts of ants on wicks) ([1]; test 13: 25% Sucrose vs. Uncle Albert's Super Smart Ant Bait (no active ingredient), P=0.458): no significant preferences
- preference in binary choice test (counts of ants on wicks) ([1]; test 15: 25% Sucrose vs. 50% Sucrose, P=0.112): no significant preference
- preference in binary choice test (counts of ants on wicks) [1, 4]: no significant preferences
- preference in binary choice test (counts of ants on wicks) [1, 6]: no significant preferences

Compound: spinosad
- Mean percent Mortality (+/SD) of T. Albipes adults ([3]; 1 day exposure): 1.01 ± 0.87b %
- Mean percent Mortality (+/SD) of T. Albipes adults ([3]; 3 days exposure): 2.02 ± 0.83d %
- Mean percent Mortality (+/SD) of T. Albipes adults ([3]; 7 days exposure): 3.78 ± 1.85e %
- Mean percent Mortality (+/SD) of T. Albipes adults ([3]; 30 days exposure): 16.15 ± 3.78c %
- Mean percent Mortality (+/SD) of T. Albipes adults ([3]; 51 days exposure): 34.51 ± 2.42cd %
